The source of these data is patent US10882826B2, “Quinolinone or quinazolinone comprising antibiofilm compositions, compounds and methods and uses relating thereto” (University College Cork—National University of Ireland, priority 2015, dated 2021).

Each structure is given as a SMILES string.

Data set [1] deals with pqsA-lacZ promoter fusion. Description: Promoter fusion based expression analysis (pqsA-lacZ, Miller units). Type of data set: cell-based, P. aeruginosa. As to conditions: PAO1 pqsA-pqsA-lacZ strain, 100 μM, overnight; methanol control 12287. As for the experimental part:
P. aeruginosa strains, PAO1 and pqsA mutant, containing the chromosomally inserted pqsA-lacZ promoter fusion on plasmid pUC18-mini-Tn7, were sub-cultured from glycerol stocks onto LB agar plates, supplemented with Carbenicillin (200 μg/ml) and X-gal (40 μg/ml), and incubated at 37° C. overnight. Single colonies were inoculated into LB broth (20 ml), supplemented with Carbenicillin (200 μg/ml), and incubated at 37° C., shaking at 180 rpm overnight. For subsequent experiments, the OD600 nm was recorded and a starting OD600 nm of 0.02 was inoculated into fresh LB broth, supplemented with Carbenicillin (200 μg/ml) and incubated at 37° C., shaking at 180 rpm.
Promoter fusion analyses were performed in a 96-well format. Briefly, overnight cultures of wild-type PAO1 pqsA-lacZ (pLP0996) and mutant strain PAO1 pqsA^− pqsA-LacZ were diluted to OD600 nm=0.02 in LB. Test compounds at 100 μM final concentration were added, mixed, aliquoted into 96 well plates and incubated overnight at 37° C. with shaking. The next day, OD600 nm values were recorded in a plate reader. Aliquots of cells (0.02 ml) were permeabilised [100 mM dibasic sodium phosphate (Na2HPO4), 20 mM KCl, 2 mM MgSO4, 0.8 mg/mL CTAB (hexadecyltrimethylammonium bromide), 0.4 mg/mL sodium deoxycholate, 5.4 μL/mL beta-mercaptoethanol] and added to substrate solution [60 mM Na2HPO4, 40 mM NaH2PO4, 1 mg/mL o-nitrophenyl-β-D-Galactoside (ONPG), 2.7 μL/mL β-mercaptoethanol]. The kinetics of colour development was monitored and the reactions were stopped using 1M NaCO3. OD420 nm were recorded as above. Miller units were calculated using the following equation; 1000×[OD420 nm/(OD600 nm)×0.02 ml×reaction time (mins)].
The phenazine production levels and Miller units in the PAO1 pqsA-pqsA-lacZ strain are detailed in table 5.
The virulence of compounds B2, C13 and C15 towards P. aeruginosa was assessed using an analogous method.

Data set [2] relates to A. fumigatus CFBRC1 biofilm. Description: A. fumigatus biofilm assay, clinical source CFBRC1. Type of data set: cell-based, Aspergillus fumigatus. As to conditions: biofilm from clinical source CFBRC1. The procedure: (§1) A. fumigatus Af293 was grown on SDA in 100 ml cell culture flasks at 37° C. for 3-4 days. Conidia were harvested by flooding the surface of the agar plates with 5 ml PBS (Oxoid) containing 0.025% (v/v) Tween 20 and gently moving the liquid over the surface of the fungal lawn. The conidial suspension was transferred into a 25 ml sterile container and conidia were counted using a Neubauer haemocytometer and light microscope. Conidia were adjusted to the required concentration in RPMI 1640 (Sigma) buffered to pH 7.0 with 0.165 M MOPS immediately prior to biofilm formation analysis.
(§2) To assess biofilm formation, counted A. fumigatus spores (1×10^5) in MOPS buffered RPMI 1640 were inoculated into 24- and 96-well plates and grown overnight in the presence of 100 μM HHQ, PQS and the test compounds. After 24 hrs, the media was removed and the biofilm washed twice with distilled water after which 0.1% crystal violet (CV) was added to each well and allowed to stand for 1 hr at room temperature. The crystal violet was removed and all wells washed in a water bath by inversion. Ethanol was added to each well to solubilise biofilms after which samples were read on a spectrophotometer at Abs595 nm.
(§3) The above experiments were carried out using biofilms grown from laboratory sources of A. fumigatus. The experiments were repeated to test some compounds against biofilms grown from three different clinical sources of A. fumigatus (CFBRC1, CFBRC2 and CFBRC3. The results are shown in table 8: […]

Data set [3] relates to A. fumigatus CFBRC2 biofilm. The data set is described as follows: A. fumigatus biofilm assay, clinical source CFBRC2. Type of data set: cell-based, Aspergillus fumigatus. As to conditions: biofilm from clinical source CFBRC2. As for the experimental part: as §1, §2, §3
The test system of data set [4] is A. fumigatus CFBRC3 biofilm. The data set is described as follows: A. fumigatus biofilm assay, clinical source CFBRC3. Type of data set: cell-based, Aspergillus fumigatus. The note with it: biofilm from clinical source CFBRC3. The procedure:
as §1, §2, §3

Another data set deals with DU145. Description: LDH release cytotoxicity, DU145. The format is cell-based. As to conditions: DU145 cell line; percentage of 0.1% Triton. The procedure:
Lactate dehydrogenase (LDH) release from IB3 lung epithelial cells was assayed as a measure of cytotoxicity using an LDH colorimetric kit (Roche) according to manufacturers' instructions. Briefly, IB3-1 cells were seeded onto 96 well plates and treated with methanol (control) and test compounds (100 μM). Following 16 hr incubation at 37° C. and 5% CO2, supernatants were removed and added to catalyst reaction mixture in a fresh plate and further incubated at 37° C. and 5% CO2 for 30 mins to allow for colour development. After this period, the plate was analysed on an ELISA plate reader at OD490 nm. Cytotoxicity was expressed as a percentage of cells treated with 0.1% (v/v) Triton (100% cytotoxicity). The results are detailed in table 3:
The above experiments were repeated, testing some compounds against further cell lines (A549, DU145 and HeLa).
In general terms: LDH in the medium is a marker of cell lysis.

For data set [5], the system named is A. fumigatus Af293 biofilm. Description: A. fumigatus biofilm assay (crystal violet). Type of data set: cell-based, Aspergillus fumigatus. As to conditions: for effectiveness against fungal biofilms formed by Aspergillus fumigatus (in words): summary statement. The procedure: A. fumigatus Af293 was routinely grown on Sabouraud dextrose agar (SDA) in 100 ml cell culture flasks at 37° C. for 3-4 days until a lawn of fungal growth was observed.
as §1, §2

In the case of `CCCCCCCc1cc(=O)c2cccc(Cl)c2[nH]1` [Compound C5], the “Miller Units, Mean” value in data set [1] is reported as 11940 Miller Units. Also, the results for the “Relative absorbance compared to MeOH (=1), Mean” value in data set [2], in data set [3] and in data set [4] were 0.297, 0.359 and 0.483, respectively.

Turning to `CCCCCCCc1cc(=O)c2cc(Cl)ccc2[nH]1` [Compound C4], the “Cytotoxicity, Mean (LDH release)” value in the data set with DU145 was determined as 24.42%. For the same molecule, the “Miller Units, Mean” value in data set [1] amounted to 35489 Miller Units. In data set [5], the “effectiveness against fungal biofilms formed by Aspergillus fumigatus (in words)” value is listed as “effective”.

In the case of `CCCCCCCc1nc2ccccc2c(=O)n1N` [Compound C2], in data set [1], the “Miller Units, Mean” value is 16027 Miller Units. The “Relative absorbance at 595 nm compared to methanol control, Mean” value in data set [5] (A. fumigatus Af293 biofilm, 100 μM, 24 hrs, crystal violet) is listed as 0.37. Moreover, in data set [5], the “effectiveness against fungal biofilms formed by Aspergillus fumigatus (in words)” value is on record as “effective”. Further, the entries for the “Relative absorbance compared to MeOH (=1), Mean” value in data set [2], in data set [3] and in data set [4] were 0.310, 0.304 and 0.292, respectively.
